No end group written: not given here.
Test system: Human epithelial cells
Assay: Wound healing scratch test, collective cell migration
Format: cell-based
Conditions: after 18 hours of culture
Experimental: Human epithelial cells were cultured with or without GFR-binding compounds as defined herein (SEQ ID NO: 28). A usual scratch test was applied (Nat Protoc 2: 329-333) on a monolayer of these epithelial cells in culture (FIG. 12a). An increase in the cell migration velocity for cells cultured with peptides was observed after 18 hours of culture. The cells migrated collectively and the communication between cells was maintained (FIG. 12b). In fact, the injury has been closed rapidly for the cells cultured with GFR-binding compounds as defined herein.

Substance: SEQ ID NO: 28: GFR-binding compound tested for wound healing; sequence not in this part (RPTQVQLRPVQVRKIEYVRKKPKLKKATV; also: cyclic, ring type not given here)
- cell migration velocity: increase

Source: patent US20180305408A1, “COMPOUNDS FOR INDUCING TISSUE FORMATION AND USES THEREOF” (HISTIDE AG, priority 2015, published 2018)
